From patent US20230338337A1, “BIOMARKERS FOR CANCER THERAPY USING MDM2 ANTAGONISTS” (OTSUKA PHARMACEUTICAL CO., LTD., priority 2019, published 2023)
Where two headings read alike, the source gives them in different places.

Key:
[1] = system: multiple myeloma (MM) cells; conditions: in vitro and ex vivo; cited from earlier work
cancer cell lines = conditions: cited from earlier work
OCI-AML3 cells = assay: Induction of apoptosis by cleaved caspase-3 cytometry; type: cell-based; conditions: 0.1 μM COMPOUND 1 with 1 μM ASTX660 and 1 ng/ml TNF-alpha, 72 h
tumour growth = conditions: cited from earlier work
[2] = target: MDM2-p53 interaction (in vitro translated MDM2) (Homo sapiens (Human), UniProt Q00987); assay: MDM2-p53 interaction 96-well plate binding assay (ELISA); conditions: for MDM2 % inhibition at 0.0010: at 0.0010 μM
Sequence of MDM2-p53 interaction (in vitro translated MDM2) (Q00987 whole entry): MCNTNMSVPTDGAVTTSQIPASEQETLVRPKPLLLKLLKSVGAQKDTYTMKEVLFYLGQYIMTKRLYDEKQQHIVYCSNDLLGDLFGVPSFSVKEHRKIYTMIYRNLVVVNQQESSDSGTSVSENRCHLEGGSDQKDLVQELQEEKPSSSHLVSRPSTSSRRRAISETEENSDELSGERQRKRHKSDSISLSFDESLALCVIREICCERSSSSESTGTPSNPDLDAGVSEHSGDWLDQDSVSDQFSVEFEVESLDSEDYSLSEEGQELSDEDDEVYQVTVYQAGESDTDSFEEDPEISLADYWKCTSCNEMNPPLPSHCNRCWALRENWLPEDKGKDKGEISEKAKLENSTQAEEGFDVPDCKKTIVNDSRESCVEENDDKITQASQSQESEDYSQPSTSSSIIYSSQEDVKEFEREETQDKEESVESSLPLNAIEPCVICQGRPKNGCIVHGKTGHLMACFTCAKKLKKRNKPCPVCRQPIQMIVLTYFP

[3] = system: SJSA-1 (p53 wild-type, MDM2 amplified osteosarcoma); assay: Protocol A: SRB growth inhibition assay; conditions: read-out: SJSA-1 IC50 (μM) (Protocol A)
SJSA-1 = assay: Protocol B: CellTiter-Glo cell viability assay
SN40R2 = assay: Protocol B: CellTiter-Glo cell viability assay; conditions: read-out: SN40R2 (Protocol B) % inhibition at 10, Protocol B
[4] = system: SN40R2 (p53 mutated, MDM2 amplified osteosarcoma); assay: Protocol A: SRB growth inhibition assay; conditions: read-out: SN40R2 IC50 (μM) (Protocol A)
human leukaemia models = conditions: mice; by inducing MDM2 degradation; cited from earlier work
[5] = read-out: SJSA1 IC50 (μM) (Protocol B), Protocol B
[6] = Homo sapiens, SJSA-1, read-out: SJSA1 IC50 (μM) (Protocol B), Protocol B

Row | MDM2 % inhibition at 0.0010 [2] [%@0.0010] | IC50 [3] [µM] | IC50 (SJSA-1; [5]) [µM] | Molecule | also measured
1 |  |  |  | c1ccc2c(CCNc3ccc(Nc4ccncc4)cc3)c[nH]c2c1 [JNJ 26854165] | activity against multiple myeloma (MM) cells [1]: potent activity
2 |  |  |  | CC(C)(C)C[C@@H]1N[C@@H](C(=O)N[C@H]2CC[C@H](O)CC2)[C@H](c2cccc(Cl)c2F)[C@]12C(=O)Nc1cc(Cl)ccc12 [MI-773] | cell growth inhibition (cancer cell lines): potently inhibits cell growth
3 |  |  |  | C[C@@H]1CN(CC(=O)N2CC(C)(C)c3nc(CO)c(Cc4ccc(F)cc4)cc32)[C@@H](CN2CCOC[C@H]2C)CN1 [ASTX660, 1-{6-[(4-fluorophenyl)methyl]-5-(hydroxymethyl)-3,3-dimethyl-1H,2H,3H-pyrrolo[3,2-b]pyridin-1-yl}-2-[(2R,5R)-5-methyl-2-{[(3R)-3-methylmorpholin-4-yl]methyl}piperazin-1-yl]ethan-1-one, reference compound] | level of apoptosis (cleaved caspase-3) (OCI-AML3 cells): sensitises the OCI-AML3 line to apoptosis induction by COMPOUND 1
4 |  |  |  | COc1cc(C(N)=O)ccc1NC(=O)[C@@H]1N[C@@H](CC(C)(C)C)C2(C(=O)Nc3cc(Cl)ccc32)[C@H]1c1cccc(Cl)c1F (some centres unmarked) [RO-8994] | tumour growth inhibition (tumour growth): inhibit tumour growth
5 | 38 | 0.028 | 0.066 | 2-{[(1R)-1-(4-chlorophenyl)-7-fluoro-5-[1-(4-fluoro-1-methylpiperidin-4-yl)-1-hydroxypropyl]-1-methoxy-3-oxo-2,3-dihydro-1H-isoindol-2-yl]methyl}pyrimidine-5-carbonitrile [Example 575] | 
6 |  |  |  | CCC(O)(c1cc(F)c2c(c1)C(=O)N(Cc1ccc(C#N)cn1)[C@@]2(O[C@H]1CCOC1)c1ccc(Cl)cc1)C1(F)CCOCC1 (stereo partly drawn) [Example 445, 6-{[(1R)-1-(4-chlorophenyl)-7-fluoro-5-[1-(4-fluorooxan-4-yl)-1-hydroxypropyl]-3-oxo-1-[(3S)-oxolan-3-yloxy]-2,3-dihydro-1H-isoindol-2-yl]methyl}pyridine-3-carbonitrile] | inhibition at 10 µM (SN40R2): 16%
7 |  |  |  | CCC(O)(c1cc(F)c2c(c1)C(=O)N(Cc1ccc(C#N)cn1)[C@@]2(OCC1(F)COC1)c1ccc(Cl)cc1)c1cn(C)cn1 (stereo partly drawn) [Example 435, 6-{[(1R)-1-(4-chlorophenyl)-7-fluoro-1-[(3-fluorooxetan-3-yl)methoxy]-5-[1-hydroxy-1-(1-methyl-1H-imidazol-4-yl)propyl]-3-oxo-2,3-dihydro-1H-isoindol-2-yl]methyl}pyridine-3-carbonitrile] | inhibition at 10 µM (SN40R2): 0%; IC50 (SJSA-1; [6]): 0.015 µM
8 | 77 | 0.023 | 0.0085 | (3R)-3-(4-chlorophenyl)-2-[(5-chloropyrimidin-2-yl)methyl]-4-fluoro-6-[1-(4-fluoro-1-methylpiperidin-4-yl)-1-hydroxypropyl]-3-[(3S)-oxolan-3-yloxy]-2,3-dihydro-1H-isoindol-1-one [Example 571] | 
9 | 82 | 0.14 | 0.17 | (3R)-3-(4-chlorophenyl)-2-[(5-chloropyridin-2-yl)methyl]-4-fluoro-6-[1-(4-fluoropiperidin-4-yl)-1-hydroxypropyl]-3-[(3S)-oxolan-3-yloxy]-2,3-dihydro-1H-isoindol-1-one [Example 548] | 
10 |  | 0.26 | 0.38 | 2-{[(1R)-1-(4-chlorophenyl)-7-fluoro-1-({1-[hydroxydideuteromethyl]cyclopropyl}dideuteromethoxy)-5-(2-hydroxypropan-2-yl)-3-oxo-2,3-dihydro-1H-isoindol-2-yl]methyl}pyrimidine-5-carbonitrile [Example 513] | IC50 ([2]; read-out: MDM2 IC50): 3.1 nM
11 | 91 | 0.056 | 0.0064 | (3R)-3-(4-chlorophenyl)-2-[(5-chloropyrimidin-2-yl)methyl]-4-fluoro-6-[(1S)-1-hydroxy-1-(1-methylpiperidin-4-yl)propyl]-3-{[1-(hydroxymethyl)cyclopropyl]methoxy}-2,3-dihydro-1H-isoindol-1-one [Example 556] | 
12 | 79 | 0.084 | 0.073 | 2-{[(1R)-1-(4-chlorophenyl)-7-fluoro-5-{1-hydroxy-1-[trans-4-hydroxycyclohexyl]propyl}-1-(2-hydroxyethoxy)-3-oxo-2,3-dihydro-1H-isoindol-2-yl]methyl}pyrimidine-5-carbonitrile [Example 510] | 
13 |  | 0.22 | 0.082 | (3R)-3-(4-chlorophenyl)-2-[(5-chloropyrimidin-2-yl)methyl]-4-fluoro-3-[(3-fluorooxetan-3-yl)methoxy]-6-[1-hydroxy-1-(1-methylpiperidin-4-yl)ethyl]-2,3-dihydro-1H-isoindol-1-one [Example 558] | MDM2 % inhibition at 0.0030 ([2]; at 0.0030 μM): 53%@0.0030
14 |  |  |  | O=C(O)C(F)(F)F.O=C1CCC(N2Cc3c(C#CCCCNC(=O)c4ccc(NC(=O)[C@@H]5NC6(CCCCC6)[C@@]6(C(=O)Nc7cc(Cl)ccc76)[C@H]5c5cccc(Cl)c5F)cc4)cccc3C2=O)C(=O)N1 (some centres unmarked) [LE-004] | growth inhibition in human leukaemia models (human leukaemia models): efficiently inhibited growth
15 |  |  |  | CCC(O)(c1cc(F)c2c(c1)C(=O)N(Cc1ncc(Cl)cc1O)[C@@]2(OCCO)c1ccc(Cl)cc1)c1cn(C)cn1 (stereo partly drawn) [Example 443, (3R)-2-[(5-chloro-3-hydroxypyridin-2-yl)methyl]-3-(4-chlorophenyl)-4-fluoro-6-[1-hydroxy-1-(1-methyl-1H-imidazol-4-yl)propyl]-3-(2-hydroxyethoxy)-2,3-dihydro-1H-isoindol-1-one] | inhibition at 10 µM (SN40R2): 3%; IC50 [4]: 38 µM; IC50 (SJSA-1; [6]): 0.093 µM
16 | 86 | 0.013 | 0.0091 | (3R)-3-(4-chlorophenyl)-2-[(5-chloropyrimidin-2-yl)methyl]-4-fluoro-6-[1-hydroxy-1-(1-methyl-1H-imidazol-4-yl)propyl]-3-{[1-(hydroxymethyl)cyclopropyl]methoxy}-2,3-dihydro-1H-isoindol-1-one [Example 477] | 
17 |  | 0.49 | 0.87 | 1-({[(1R)-1-(4-chlorophenyl)-2-[(5-chloropyridin-2-yl)methyl]-7-fluoro-5-{1-hydroxy-1-[1-(2-hydroxyethyl)piperidin-4-yl]ethyl}-3-oxo-2,3-dihydro-1H-isoindol-1-yl]oxy}methyl)cyclopropane-1-carbonitrile [Example 420] | MDM2 % at concentration [2]: 68%@0.0010

Row | Molecule | MDM2 % inhibition at 0.0010 [2] [%@0.0010] | IC50 [3] [µM] | IC50 (SJSA-1; [5]) [µM] | also measured
18 | CCC(O)(CN1CCN(C)CC1)c1cc(F)c2c(c1)C(=O)N(Cc1ncc(Cl)cn1)[C@@]2(O[C@H]1CCOC1)c1ccc(Cl)cc1 (stereo partly drawn) [Example 522, (3R)-3-(4-chlorophenyl)-2-[(5-chloropyrimidin-2-yl)methyl]-4-fluoro-6-[2-hydroxy-1-(4-methylpiperazin-1-yl)butan-2-yl]-3-[(3S)-oxolan-3-yloxy]-2,3-dihydro-1H-isoindol-1-one] |  |  | 0.048 | inhibition at 10 µM (SN40R2): 24%
19 | CCC(O)(c1cc(F)c2c(c1)C(=O)N(Cc1ccc(C#N)cn1)[C@@]2(O[C@H]1CCOC1)c1ccc(Cl)cc1)C1(F)CCOCC1 (stereo partly drawn) [Example 446, 6-{[(1R)-1-(4-chlorophenyl)-7-fluoro-5-[1-(4-fluorooxan-4-yl)-1-hydroxypropyl]-3-oxo-1-[(3S)-oxolan-3-yloxy]-2,3-dihydro-1H-isoindol-2-yl]methyl}pyridine-3-carbonitrile] |  |  | 0.023 | IC50 [4]: 29 µM
20 | 6-{[(1R)-1-(4-chlorophenyl)-7-fluoro-5-{1-hydroxy-1-[trans-4-hydroxycyclohexyl]propyl}-3-oxo-1-[cis-3-hydroxycyclobutoxy]-2,3-dihydro-1H-isoindol-2-yl]methyl}pyridine-3-carbonitrile [Example 518] | 79 | 0.058 | 0.065 | 
21 | CC(O)(c1cc(F)c2c(c1)C(=O)N(Cc1ncc(Cl)cn1)[C@@]2(OCC1(CO)CC1)c1ccc(Cl)cc1)[C@H]1CC[C@H](O)CC1 (stereo partly drawn) [Example 401, (3R)-3-(4-chlorophenyl)-2-[(5-chloropyrimidin-2-yl)methyl]-4-fluoro-6-{1-hydroxy-1-[trans-4-hydroxycyclohexyl]ethyl}-3-{[1-(hydroxymethyl)cyclopropyl]methoxy}-2,3-dihydro-1H-isoindol-1-one] |  |  | 0.0098 | inhibition at 10 µM (SN40R2): 6%
